From ChEMBL document CHEMBL1687855, “Nardosinane sesquiterpenoids from the Formosan soft coral Lemnalia flava” (2011)
Calls of active or inactive are those of the source. The calls are words filed in the database; no cut-off is given here.

How the values were obtained:
CCRF-CEM = assay: Cytotoxicity against human CCRF-CEM cells; type: functional, cell-based
WiDr = assay: Cytotoxicity against human WiDr cells; type: functional, cell-based
MCF7 = assay: Cytotoxicity against human MCF7 cells; type: functional, cell-based
SH-SY5Y [1] = assay: Neuroprotective activity against 1 hr compound pretreated human SH-SY5Y cells assessed as reduction in 6-OHDA induced damage at 10 uM by MTT assay; type: functional; set-up: scale not given: the % may be the effect or the level left
DLD-1 = assay: Cytotoxicity against human DLD1 cells; type: functional, cell-based
SH-SY5Y [2] = assay: Neuroprotective activity against 1 hr compound pretreated human SH-SY5Y cells assessed as reduction in 6-OHDA induced damage at 10^-2 uM by MTT assay; type: functional; set-up: scale not given: the % may be the effect or the level left
SH-SY5Y [3] = assay: Neuroprotective activity against 1 hr compound pretreated human SH-SY5Y cells assessed as reduction in 6-OHDA induced damage at 1 uM by MTT assay; type: functional; set-up: scale not given: the % may be the effect or the level left
SH-SY5Y [4] = assay: Neuroprotective activity against 1 hr compound pretreated human SH-SY5Y cells assessed as reduction in 6-OHDA induced damage at 10^-3 uM by MTT assay; type: functional; set-up: scale not given: the % may be the effect or the level left
RAW264.7 [5] = assay: Antiinflammatory activity in mouse RAW264.7 cells assessed as inhibition of LPS-induced up-regulation of pro-inflammatory protein iNOS by Western blot analysis; type: functional
SH-SY5Y [6] = assay: Neuroprotective activity against 1 hr compound pretreated human SH-SY5Y cells assessed as reduction in 6-OHDA induced damage at 10^-4 uM by MTT assay; type: functional; set-up: scale not given: the % may be the effect or the level left
HEp-2 = assay: Cytotoxicity against human Hep2 cells; type: functional, cell-based
RAW264.7 [7] = assay: Antiinflammatory activity in mouse RAW264.7 cells assessed as inhibition of LPS-induced up-regulation of pro-inflammatory protein COX-2 by Western blot analysis; type: functional
Daoy = assay: Cytotoxicity against human DaOY cells; type: functional, cell-based
SH-SY5Y [8] = assay: Neuroprotective activity against 1 hr compound pretreated human SH-SY5Y cells assessed as reduction in 6-OHDA induced damage at 10^-1 uM by MTT assay; type: functional; set-up: scale not given: the % may be the effect or the level left
HL-60 = assay: Cytotoxicity against human HL60 cells; type: functional, cell-based
P388D1 = assay: Cytotoxicity against […] cells; type: functional, cell-based; settings: Mus musculus
SH-SY5Y [9] = assay: Neuroprotective activity against 1 hr compound pretreated human SH-SY5Y cells assessed as reduction in 6-OHDA induced damage at 10 '-4 to 10 uM by MTT assay; type: functional; set-up: scale not given: the % may be the effect or the level left
[10] = read-out: ED50 (the source's name)

Row | Structure (SMILES) | Activity (CCRF-CEM) | Activity (WiDr) | Activity (MCF7) | Activity (SH-SY5Y [1]) | Activity (DLD-1) | Activity (SH-SY5Y [2]) | Activity (SH-SY5Y [3]) | Activity (SH-SY5Y [4]) | Activity (RAW264.7 [5]) | EC50 (RAW264.7 [5]; [10]) | Activity (SH-SY5Y [6]) | Activity (HEp-2) | Activity (RAW264.7 [7]) | EC50 (RAW264.7 [7]; [10]) | Activity (Daoy) | Activity (SH-SY5Y [8]) | Activity (HL-60) | Activity (P388D1) | Activity (SH-SY5Y [9])
1 | C[C@@H]1[C@@H]2O[C@H]3CC[C@@]4(C=CC[C@H](C)[C@@]4(C)[C@H]13)O2 [FLAVALIN A] | inactive | inactive | inactive | 20.9% | inactive | 30.8% | 35.1% | 5.84% | Dose-dependent effect | 20.5 µM | 16.9% | inactive | Dose-dependent effect | 26.5 µM | inactive | 25.3% | inactive | inactive | 
2 | C[C@@H]1[C@@H](O)O[C@@]23C=CC[C@H](C)[C@@]2(C)[C@H]1C(=O)CC3 [FLAVALIN B] | inactive | inactive | inactive | 30.1% | inactive | 30.2% | 21.3% | 32.6% |  |  | 29.6% | inactive |  |  | inactive | 24.3% | inactive | inactive | 
3 | CO[C@H]1O[C@@]23C=CC[C@H](C)[C@@]2(C)[C@@H](C(=O)CC3)[C@@H]1C [FLAVALIN C] | inactive | inactive | inactive |  | inactive |  |  |  |  |  |  | inactive |  |  | inactive |  | inactive | inactive | <20%
4 | CO[C@@H]1O[C@@]23C=CC[C@H](C)[C@@]2(C)[C@@H](C(=O)CC3)[C@@H]1C [FLAVALIN D] | inactive | inactive | inactive |  | inactive |  |  |  |  |  |  | inactive |  |  | inactive |  | inactive | inactive | <20%
